Test results taken from patent US9040714B2 (MannKind Corporation, priority 2010, dated 2015).
Where a name gives a salt, the structure may show the parent alone.

System: IRE-1α-mediated XBP-1 splicing in human myeloma MM.1s cells
Experiment: Cellular EC50: endogenous XBP-1 splicing in myeloma cells by RT-PCR (DTT stress)
Format: cell-based
Conditions: MM1.S, average cellular EC50, XBP-1 splicing in myeloma cells, read-out: EC50_av
Procedure: Human myeloma MM.1s cells are incubated with a compound for 1.25 hours before stressing the cells with 2 mM dithiothreitol (DTT). After an additional 45 minutes (2 hours total) with compound and DTT, the cells are harvested with TRIZOL® (a mono-phasic solution of phenol and guanidine isothiocyanate), and total RNA is prepared as directed by the manufacturer (Invitrogen). Human XBP-1 is amplified by RT-PCR with the following primers, which flank the 26 base unconventional intron excised by IRE-1α:
RT-PCR of unstressed (U) cells then generates the upper band. When cells are stressed (S) with the endoplasmic reticulum (ER) stressing agent DTT, IRE-1α is activated due to accumulating unfolded protein and the resulting RT-PCR, product is 26 base pairs shorter.
Compounds which pass specificity assays are assayed for cellular EC50 using endogenous XBP-1 splicing in myeloma cells. XBP-1 is regulated through the excision of a 26 nucleotide intron from the XBP-1 mRNA by the highly specific endoribonuclease activity of IRE-1α. […] This splicing event is used to measure IRE-1α activity on XBP-1 mRNA in cells and tissues.
Briefly, compounds are incubated in the presence or absence of an ER stress agent (e.g., DTT), and the ratio of XBP-1u (unspliced) to XBP-1 s (spliced) is quantified by RT-PCR. The ED50 is determined as the 50% XBP-1s to total XPB-1 levels.

Going from O=Cc1c(O)ccc2nc(-c3cccc(C(=O)N4CCCC4)c3)ccc12 to O=Cc1c(O)ccc2nc(-c3cccc(C(=O)N4CCOCC4)c3)ccc12 [Example 43], the EC50 falls from > 10 µM to < 10 µM.

Going from CC1CCN(C(=O)c2ccc(-c3ccc4c(C=O)c(O)ccc4n3)cc2)CC1 [Compound 47] to O=Cc1c(O)ccc2nc(-c3ccc(C(=O)N4CCCC4)cc3)ccc12 [Compound 48], the EC50 falls from > 10 µM to < 10 µM. The second is the more potent here.

Compared with CC(=O)NC1CCN(c2ccc3c(C=O)c(O)ccc3n2)C1 (centres unmarked) [Compound 51], CC1CCN(C(=O)c2ccc(-c3nc4ccc(O)c(C=O)c4s3)cc2)CC1 [Compound 57] is higher in EC50: < 10 µM for the first, > 10 µM for the second.

COC(=O)c1ccc(-c2nc3ccc(O)c(C=O)c3[nH]2)cc1 [Compound 59] and O=Cc1c(O)ccc2nc(-c3ccc(C(=O)NCCN4CCOCC4)cc3)[nH]c12 [Compound 60] cannot be ordered by EC50: > 10 µM for the first, > 10 µM for the second.

Compared with Cc1c(Br)c(=O)oc2c(C=O)c(O)ccc12 [Example 1], CCN(CC)CCc1c(C)c2ccc(O)c(C=O)c2oc1=O [Example 4] is higher in EC50: < 10 µM for the first, > 10 µM for the second. The first is the more potent here.

Cc1c(-c2ccc(C(=O)N3CCN(C)CC3)cc2)c(=O)oc2c(C=O)c(O)ccc12 [Example 2] and Cc1c(-c2ccc(C(=O)N3CCC(C)CC3)cc2)c(=O)oc2c(C=O)c(O)ccc12 [Example 19] cannot be ordered by EC50: < 10 µM for the first, < 10 µM for the second.

Cc1c(-c2cccc(C(=O)N3CCOCC3)c2)c(=O)oc2c(C=O)c(O)ccc12 [Example 13] and Cc1c(CCC(=O)N2CCOCC2)c(=O)oc2c(C=O)c(O)ccc12 [Example 69] cannot be ordered by EC50: < 10 µM for the first, < 10 µM for the second.

Compared with Cc1c(CCC(=O)N2CCN(C)CC2)c(=O)oc2c(C=O)c(O)ccc12 [Example 15], Cc1oc2c(C=O)c(O)ccc2c(=O)c1CCC(=O)N1CCN(C)CC1 [Example 88] is higher in EC50: < 10 µM for the first, > 10 µM for the second. The first is the more potent here.

Cc1cc(=O)oc2c(C=O)c(O)c(F)cc12 [Example 23, hydrochloride] and COCc1cc(=O)oc2c(C=O)c(O)cc(OC)c12 [Example 122] cannot be ordered by EC50: < 10 µM for the first, < 10 µM for the second.

First: CN1CCN(C2CCN(c3nc4ccc(O)c(C=O)c4s3)C2)CC1 (centres unmarked) [Example 54]
Second: Cc1oc2c(C=O)c(O)ccc2c(=O)c1CC(=O)N1CCN(C)CC1 [Example 222]
The EC50 of the first is higher: > 10 µM for the first, < 10 µM for the second.

COc1cc2c(=O)c(CCC(=O)NCCN3CCOCC3)c(C)oc2c(C=O)c1O [Example 93] and COc1cc2c(=O)c(CC(=O)NCCN3CCOCC3)c(C)oc2c(C=O)c1O [Example 210] cannot be ordered by EC50: > 10 µM for the first, > 10 µM for the second.

COc1cc2c(=O)c(CCC(=O)N3CCN(C)CC3)c(C)oc2c(C=O)c1O [Example 94] and COc1cc2c(=O)c(CC(=O)N3CCN(C)CC3)c(C)oc2c(C=O)c1O [Example 208] cannot be ordered by EC50: > 10 µM for the first, > 10 µM for the second.

COCCc1c(C)c2c(O)cc(O)c(C=O)c2oc1=O [Example 123] and COCCc1c(C)c2c(OC)cc(O)c(C=O)c2oc1=O [Example 124] cannot be ordered by EC50: < 10 µM for the first, < 10 µM for the second.

COCCc1c(C)c2cc(OC)c(O)c(C=O)c2oc1=O [Example 125] and CCNC(=O)CCc1c(C)c2cc(OCCOC)c(O)c(C=O)c2oc1=O [Example 183] cannot be ordered by EC50: < 10 µM for the first, < 10 µM for the second.

C=CCc1c(C)c2c(OC)cc(O)c(C=O)c2oc1=O [Example 126] and COc1cc(O)c(C=O)c2oc(=O)c(C)c(CN(C)C)c12 [Example 135] cannot be ordered by EC50: < 10 µM for the first, < 10 µM for the second.

COc1cc(O)c(C=O)c2oc(=O)c(C)c(CN3CCOCC3)c12 [Example 134] and COc1cc(O)c(C=O)c2oc(C)c(CC(=O)N3CCOCC3)c(=O)c12 [Example 227] cannot be ordered by EC50: < 10 µM for the first, < 10 µM for the second.

Compared with CCOC(=O)CCc1c(C)c2cc(N(C)C(C)=O)c(O)c(C=O)c2oc1=O [Example 144], CCNC(=O)Cc1c(C)c2cc(OCCOC)c(O)c(C=O)c2oc1=O [Example 191] is lower in EC50: > 10 µM for the first, < 10 µM for the second. The second is the more potent here.

COCCOCCc1c(C)c2c(OC)cc(O)c(C=O)c2oc1=O [Example 145] and CCOC(=O)Cc1c(C)c2c(OCCOC)cc(O)c(C=O)c2oc1=O [Example 158] cannot be ordered by EC50: < 10 µM for the first, < 10 µM for the second.

COCCNC(=O)Cc1c(C)c2c(OCCOC)cc(O)c(C=O)c2oc1=O [Example 159] and CCNC(=O)Cc1c(C)c2c(OCCOC)cc(O)c(C=O)c2oc1=O [Example 162] cannot be ordered by EC50: < 10 µM for the first, < 10 µM for the second.

COCCOc1cc(O)c(C=O)c2oc(=O)c(CC(=O)N3CCOCC3)c(C)c12 [Example 160] and COCCOc1cc2c(C)c(CC(=O)N3CCOCC3)c(=O)oc2c(C=O)c1O [Example 188] cannot be ordered by EC50: < 10 µM for the first, < 10 µM for the second.

COCCOc1cc(O)c(C=O)c2oc(=O)c(CC(=O)N3CCN(C)CC3)c(C)c12 [Example 161] and COc1cc(O)c(C=O)c2oc(=O)c(CC(=O)N3CCN(C)CC3)c(C)c12 [Example 178] cannot be ordered by EC50: < 10 µM for the first, < 10 µM for the second.

COCCOc1cc(O)c(C=O)c2oc(=O)c(CC(=O)NCCN3CCOCC3)c(C)c12 [Example 163] and COCCOc1cc2c(C)c(CC(=O)NCCN3CCOCC3)c(=O)oc2c(C=O)c1O [Example 187] cannot be ordered by EC50: < 10 µM for the first, < 10 µM for the second.

Compared with COCCOc1cc(O)c(C=O)c2oc(=O)c(CC(=O)NCCN(C)C)c(C)c12 [Example 164], COc1cc(O)c(C=O)c2oc(=O)c(CCC(=O)NCCN(C)C)c(C)c12 [Example 195] is lower in EC50: > 10 µM for the first, < 10 µM for the second. The second is the more potent here.

COCCOc1cc(O)c(C=O)c2oc(=O)c(C)c(C)c12 [Example 165] and COCCNC(=O)Cc1c(C)oc2c(C=O)c(O)cc(OC)c2c1=O [Example 226] cannot be ordered by EC50: < 10 µM for the first, < 10 µM for the second.

Going from COc1cc2c(C)c(CC(=O)N3CCOCC3)c(=O)oc2c(C=O)c1O [Example 167] to COc1cc2c(=O)c(CC(=O)N3CCOCC3)c(C)oc2c(C=O)c1O [Example 207], the EC50 rises from < 10 µM to > 10 µM. The first is the more potent here.

First: COCCOc1cc2c(C)c(CC(=O)N3CCN(C)CC3)c(=O)oc2c(C=O)c1O [Example 189]
Second: Cc1c(CC(=O)N2CCOCC2)c(=O)oc2c(C=O)c(O)c(OCCN3CCOCC3)cc12 [Example 206]
The EC50 of the first is lower: < 10 µM for the first, 10 µM for the second.

Going from COCCNC(=O)Cc1c(C)c2cc(OCCOC)c(O)c(C=O)c2oc1=O [Example 190] to COCCNC(=O)Cc1c(C)c2cc(OCCN3CCOCC3)c(O)c(C=O)c2oc1=O [Example 205], the EC50 rises from < 10 µM to 10 µM.

COCCNC(=O)CCc1c(C)c2cc(OCCN3CCOCC3)c(O)c(C=O)c2oc1=O [Example 202] and CCNC(=O)CCc1c(C)c2cc(OCCN3CCOCC3)c(O)c(C=O)c2oc1=O [Example 204] cannot be ordered by EC50: > 10 µM for the first, > 10 µM for the second.

Going from Cc1c(C)c2cc(OCCN3CCOCC3)c(O)c(C=O)c2oc1=O [Example 203] to Cc1oc2c(C=O)c(O)ccc2c(=O)c1CC(=O)NCCN1CCOCC1 [Example 225], the EC50 rises from < 10 µM to > 10 µM. The first is the more potent here.

Compared with CCNC(=O)Cc1c(C)oc2c(C=O)c(O)c(OC)cc2c1=O [Example 209], CCNC(=O)CCc1c(C)oc2c(C=O)c(O)c(OC)cc2c1=O [Example 213] is higher in EC50: < 10 µM for the first, > 10 µM for the second.

COc1cc2c(=O)c(CC(=O)NCCN(C)C)c(C)oc2c(C=O)c1O [Example 211] and COc1cc2c(=O)c(CCC(=O)NCCN(C)C)c(C)oc2c(C=O)c1O [Example 214] cannot be ordered by EC50: > 10 µM for the first, > 10 µM for the second.

First: COCCNC(=O)CCc1c(C)oc2c(C=O)c(O)c(OC)cc2c1=O [Example 212]
Second: COCCNC(=O)CCc1c(C)oc2c(C=O)c(O)ccc2c1=O [Example 215]
The EC50 of the first is higher: > 10 µM for the first, < 10 µM for the second.

Going from Cc1oc2c(C=O)c(O)ccc2c(=O)c1CCC(=O)N1CCOCC1 [Example 216] to Cc1oc2c(C=O)c(O)ccc2c(=O)c1CC(=O)N1CCOCC1 [Example 221], the EC50 rises from < 10 µM to > 10 µM.

CCNC(=O)CCc1c(C)oc2c(C=O)c(O)ccc2c1=O [Example 217] and CCNC(=O)Cc1c(C)oc2c(C=O)c(O)ccc2c1=O [Example 223] cannot be ordered by EC50: < 10 µM for the first, < 10 µM for the second.

Cc1oc2c(C=O)c(O)ccc2c(=O)c1CCC(=O)NCCN(C)C [Example 218] and Cc1oc2c(C=O)c(O)ccc2c(=O)c1CC(=O)NCCN(C)C [Example 224] cannot be ordered by EC50: > 10 µM for the first, > 10 µM for the second.

Going from Cc1oc2c(C=O)c(O)ccc2c(=O)c1CCC(=O)NCCN1CCOCC1 [Example 219] to COCCNC(=O)Cc1c(C)oc2c(C=O)c(O)ccc2c1=O [Example 220], the EC50 falls from > 10 µM to < 10 µM. The second is the more potent here.

Going from CCNC(=O)Cc1c(C)oc2c(C=O)c(O)cc(OC)c2c1=O [Example 228] to CCNC(=O)CCc1nc2c(C=O)c(O)ccc2n1C [Example 230], the EC50 rises from < 10 µM to > 10 µM. The first is the more potent here.

In the case of Cn1c(CCC(=O)N2CCOCC2)nc2ccc(O)c(C=O)c21 [Example 229], the EC50 is reported as > 10 µM.

Same assay, conditions: MM1.S, read-out: EC50_av

First: O=Cc1c(O)ccc2nc(N3CCC(NC(=O)CN4CCOCC4)C3)ccc12 (centres unmarked) [Compound 50]
Second: CN1CCN(C(=O)c2ccc(-c3nc4ccc(O)c(C=O)c4[nH]3)cc2)CC1 [Compound 62]
The EC50 of the first is lower: < 10 µM for the first, > 10 µM for the second.

O=Cc1c(O)ccc2nc(-c3ccc(C(=O)O)cc3)[nH]c12 [Compound 58] and O=Cc1c(O)ccc2cc(-c3ccc(Br)cc3)c(=O)oc12 [Example 7] cannot be ordered by EC50: > 10 µM for the first, > 10 µM for the second.

COc1cc2c(C)c(Br)c(=O)oc2c(C=O)c1O [Example 6] and Cc1c(Br)c(=O)oc2c(C=O)c(O)c(F)cc12 [Example 9] cannot be ordered by EC50: < 10 µM for the first, < 10 µM for the second.

Going from Cc1c(-c2ccc(C(=O)N3CCCC3)cc2)c(=O)oc2c(C=O)c(O)ccc12 [Example 18] to Cc1c(-c2cccc(C(=O)N3CCCC3)c2)c(=O)oc2c(C=O)c(O)ccc12 [Example 21], the EC50 rises from < 10 µM to > 10 µM.
